Legend:
[1] = test system: kochia; assay: Test A postemergence; assay type: in vivo, Kochia scoparia; settings: for Plant response rating, Kochia: 0 to 100 scale, 0 no effect, 100 complete control
Source text: (§1) Seeds of plant species selected from barnyardgrass (Echinochloa crus-galli), kochia (Kochia scoparia), ragweed (common ragweed, Ambrosia elatior), Italian ryegrass (Lolium multiflorum), large (Lg) crabgrass (Digitaria sanguinalis), giant foxtail (Setaria faberii), morningglory (Ipomoea spp.), pigweed (Amaranthus retroflexus), velvetleaf (Abutilon theophrasti), wheat (Triticum aestivum), and corn (Zea mays) were planted into a blend of loam soil and sand and treated preemergence with a directed soil spray using test chemicals formulated in a non-phytotoxic solvent mixture which included a surfactant.
(§2) At the same time, plants selected from these crop and weed species and also blackgrass (Alopecurus myosuroides), and galium (catchweed bedstraw, Galium aparine) were planted in pots containing the same blend of loam soil and sand and treated with postemergence applications of test chemicals formulated in the same manner. Plants ranged in height from 2 to 10 cm and were in the one- to two-leaf stage for the postemergence treatment. Treated plants and untreated controls were maintained in a greenhouse for approximately 10 days, after which time all treated plants were compared to untreated controls and visually evaluated for injury. Plant response ratings, summarized in Table A, are based on a 0 to 100 scale where 0 is no effect and 100 is complete control. A dash (-) response means no test result.

[2] = test system: pigweed; assay: Test A postemergence; assay type: in vivo, Amaranthus retroflexus; settings: for Plant response rating, Pigweed: 0 to 100 scale, 0 no effect, 100 complete control
Outline: (§3)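 Visual injury scored 0–100 (100 = complete control) against untreated controls about 10 days after treatment in a greenhouse. Test chemicals, formulated with surfactant in non-phytotoxic solvent, were sprayed on soil preemergence or on 2-10 cm, one- to two-leaf plants postemergence.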

[3] = test system: barnyardgrass; assay: Test A preemergence; assay type: in vivo, Echinochloa crus-galli
Outline: as §3

[4] = test system: giant foxtail; assay: Test A postemergence; assay type: in vivo, Setaria faberii; settings: for Plant response rating, Foxtail, Giant: 0 to 100 scale, 0 no effect, 100 complete control
Outline: as §3

[5] = test system: ragweed; assay: Test A preemergence; assay type: in vivo, Ambrosia elatior; settings: for Plant response rating, Ragweed: 0 to 100 scale where 0 is no effect and 100 is complete control; for Ragweed plant response rating: 1000 g ai/ha, 0 to 100 scale, 0 no effect, 100 complete control, approx. 10 days
Source text: as §1, §2

[6] = test system: rice; assay: Test B flooded paddy test; assay type: in vivo, Oryza sativa; settings: Flood, 250 g ai/ha; 0 to 100 scale where 0 is no effect and 100 is complete control
Outline: (§4)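 Flooded to 3 cm at the 2-leaf stage, pots received compound through the paddy water and were kept at that depth under greenhouse conditions. After 13–15 days, effect was rated by eye relative to controls, 0 = none and 100 = complete control.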

[7] = test system: kochia; assay: Test A preemergence; assay type: in vivo, Kochia scoparia; settings: for Plant response rating, Kochia: 0 to 100 scale where 0 is no effect and 100 is complete control; for Kochia plant response rating: 1000 g ai/ha, 0 to 100 scale, 0 no effect, 100 complete control, approx. 10 days
Source text: as §1, §2

[8] = test system: giant foxtail; assay: Test A preemergence; assay type: in vivo, Setaria faberii; settings: for Plant response rating, Foxtail, Giant: 0 to 100 scale where 0 is no effect and 100 is complete control; for Foxtail, Giant plant response rating: 1000 g ai/ha, 0 to 100 scale, 0 no effect, 100 complete control, approx. 10 days
Outline: as §3

[9] = test system: Italian ryegrass; assay: Test A postemergence; assay type: in vivo, Lolium multiflorum; settings: for Plant response rating, Ryegrass, Italian: 0 to 100 scale, 0 no effect, 100 complete control
Source text: as §1, §2

[10] = test system: galium; assay: Test A postemergence; assay type: in vivo, Galium aparine; settings: for Plant response rating, Galium: 0 to 100 scale, 0 no effect, 100 complete control
Source text: as §1, §2

[11] = test system: wheat; assay: Test A postemergence; assay type: in vivo, Triticum aestivum; settings: for Plant response rating, Wheat: 0 to 100 scale, 0 no effect, 100 complete control
Outline: as §3

[12] = test system: corn; assay: Test A postemergence; assay type: in vivo, Zea mays; settings: for Plant response rating, Corn: 0 to 100 scale, 0 no effect, 100 complete control
Outline: as §3

[13] = test system: Italian ryegrass; assay: Test A preemergence; assay type: in vivo, Lolium multiflorum; settings: for Plant response rating, Ryegrass, Italian: 0 to 100 scale where 0 is no effect and 100 is complete control; for Ryegrass, Italian plant response rating: 1000 g ai/ha, 0 to 100 scale, 0 no effect, 100 complete control, approx. 10 days
Source text: as §1, §2

[14] = test system: blackgrass; assay: Test A postemergence; assay type: in vivo, Alopecurus myosuroides; settings: for Plant response rating, Blackgrass: 0 to 100 scale, 0 no effect, 100 complete control
Source text: as §1, §2

[15] = test system: ragweed; assay: Test A postemergence; assay type: in vivo, Ambrosia elatior; settings: for Plant response rating, Ragweed: 0 to 100 scale, 0 no effect, 100 complete control
Source text: as §1, §2

[16] = test system: sedge, umbrella; assay: Test B flooded paddy test; assay type: in vivo, Cyperus difformis; settings: Flood, 250 g ai/ha; 0 to 100 scale where 0 is no effect and 100 is complete control
Outline: as §4

[17] = test system: pigweed; assay: Test A preemergence; assay type: in vivo, Amaranthus retroflexus; settings: for Plant response rating, Pigweed: 0 to 100 scale where 0 is no effect and 100 is complete control; for Pigweed plant response rating: 1000 g ai/ha, 0 to 100 scale, 0 no effect, 100 complete control, approx. 10 days
Outline: as §3

[18] = test system: Heteranthera limosa; assay: Test B flooded paddy test; assay type: in vivo; settings: Flood, 250 g ai/ha; 0 to 100 scale where 0 is no effect and 100 is complete control
Outline: as §4

[19] = test system: barnyardgrass; assay: Test A postemergence; assay type: in vivo, Echinochloa crus-galli; settings: for Plant response rating, Barnyardgrass: 0 to 100 scale, 0 no effect, 100 complete control
Outline: as §3

[20] = test system: barnyardgrass; assay: Test B flooded paddy test; assay type: in vivo, Echinochloa crus-galli; settings: Flood, 250 g ai/ha; 0 to 100 scale where 0 is no effect and 100 is complete control
Outline: as §4

[21] = 125 g ai/ha, 0 to 100 scale where 0 is no effect and 100 is complete control
[22] = 31 g ai/ha, visual, approximately 10 days

CCCOc1cnn(-c2c(F)cccc2Oc2ncc(F)cn2)c1 [Compound 153]
Plant response rating, Kochia ([1]; 31 g ai/ha): 0 | Kochia plant response rating [1, 21]: 0 | Plant response rating, Pigweed ([2]; 31 g ai/ha): 0 | Pigweed plant response rating [2, 21]: 0 | Plant response rating, Barnyardgrass ([3]; 31 g ai/ha, 0 to 100 scale where 0 is no effect and 100 is complete control, visual, approximately 10 days): 0 | Plant response rating, Barnyardgrass [3, 21]: 0 | Plant response rating, Foxtail, Giant ([4]; 31 g ai/ha): 0 | Foxtail, Giant plant response rating [4, 21]: 0 | Plant response rating, Ragweed [5, 22]: 0 | Plant response rating, Ragweed ([5]; 125 g ai/ha): 0 | Plant response rating, Rice [6]: 0 | Plant response rating, Kochia [7, 22]: 0 | Plant response rating, Kochia ([7]; 125 g ai/ha): 0 | Plant response rating, Foxtail, Giant [8, 22]: 0 | Plant response rating, Foxtail, Giant ([8]; 125 g ai/ha): 0 | Plant response rating, Ryegrass, Italian ([9]; 31 g ai/ha): 0 | Ryegrass, Italian plant response rating [9, 21]: 0 | Plant response rating, Galium ([10]; 31 g ai/ha): 0 | Galium plant response rating [10, 21]: 0 | Plant response rating, Wheat ([11]; 31 g ai/ha): 0 | Wheat plant response rating [11, 21]: 0 | Plant response rating, Corn ([12]; 31 g ai/ha): 0 | Corn plant response rating [12, 21]: 0 | Plant response rating, Ryegrass, Italian [13, 22]: 0 | Plant response rating, Ryegrass, Italian ([13]; 125 g ai/ha): 0 | Plant response rating, Blackgrass ([14]; 31 g ai/ha): 0 | Blackgrass plant response rating [14, 21]: 0 | Plant response rating, Ragweed ([15]; 31 g ai/ha): 0 | Ragweed plant response rating [15, 21]: 0 | Plant response rating, Sedge, Umbrella [16]: 0 | Plant response rating, Pigweed [17, 22]: 0 | Plant response rating, Pigweed ([17]; 125 g ai/ha): 0 | Plant response rating, Ducksalad [18]: 30 | Plant response rating, Barnyardgrass ([19]; 31 g ai/ha): 0 | Barnyardgrass plant response rating [19, 21]: 0 | Plant response rating, Barnyardgrass [20]: 0

O=Cc1cn(-c2c(F)cccc2Oc2ncc(Cl)cn2)nn1 [Compound 139]
Plant response rating, Kochia ([1]; 1000 g ai/ha): 0 | Plant response rating, Pigweed ([2]; 1000 g ai/ha): 30 | Barnyardgrass plant response rating ([3]; 1000 g ai/ha, 0 to 100 scale, 0 no effect, 100 complete control, approx. 10 days): 0 | Plant response rating, Foxtail, Giant ([4]; 1000 g ai/ha): 0 | Ragweed plant response rating [5]: 0 | Kochia plant response rating [7]: 0 | Foxtail, Giant plant response rating [8]: 0 | Plant response rating, Ryegrass, Italian ([9]; 1000 g ai/ha): 0 | Plant response rating, Galium ([10]; 1000 g ai/ha): 10 | Plant response rating, Wheat ([11]; 1000 g ai/ha): 0 | Plant response rating, Corn ([12]; 1000 g ai/ha): 20 | Ryegrass, Italian plant response rating [13]: 0 | Plant response rating, Blackgrass ([14]; 1000 g ai/ha): 0 | Plant response rating, Ragweed ([15]; 1000 g ai/ha): 0 | Pigweed plant response rating [17]: 50 | Plant response rating, Barnyardgrass ([19]; 1000 g ai/ha): 0

Fc1cccc(Oc2ncc(Cl)cn2)c1-n1cc(C2CCCCC2)nn1 [Compound 102]
Plant response rating, Kochia ([1]; 1000 g ai/ha): 30 | Plant response rating, Pigweed ([2]; 1000 g ai/ha): 80 | Plant response rating, Barnyardgrass ([3]; 1000 g ai/ha, 0 to 100 scale, 0 no effect, 100 complete control): 50 | Plant response rating, Foxtail, Giant ([4]; 1000 g ai/ha): 40 | Ragweed plant response rating [5]: 0 | Kochia plant response rating [7]: 0 | Foxtail, Giant plant response rating [8]: 100 | Plant response rating, Ryegrass, Italian ([9]; 1000 g ai/ha): 0 | Plant response rating, Galium ([10]; 1000 g ai/ha): 70 | Plant response rating, Wheat ([11]; 1000 g ai/ha): 0 | Plant response rating, Corn ([12]; 1000 g ai/ha): 20 | Ryegrass, Italian plant response rating [13]: 0 | Plant response rating, Blackgrass ([14]; 1000 g ai/ha): 40 | Plant response rating, Ragweed ([15]; 1000 g ai/ha): 20 | Pigweed plant response rating [17]: 20 | Plant response rating, Barnyardgrass ([19]; 1000 g ai/ha): 50

— US9695155B2, “Herbicidal substituted pyrimidinyloxy benzene compounds” (E. I. DU PONT DE NEMOURS AND COMPANY, priority 2013, dated 2017)
